Laboratory results reported in ChEMBL document CHEMBL1201862, “PubChem BioAssay data set” (2004).
The source made the active and inactive calls.

What was measured:
Cytochrome P450 2D6 = Cytochrome P450 2D6 (Homo sapiens, UniProt P10635);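 also: CYP2D6 member of a cytochrome P450 panel assay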
Cytochrome P450 3A4 = Cytochrome P450 3A4 (Homo sapiens, UniProt P08684);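 also: CYP3A4 tested as one member of a cytochrome P450 panel screen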
[1] = molecular target: Glucose-6-phosphate 1-dehydrogenase (Homo sapiens, UniProt P11413); assay: human G6PD enzyme inhibitors, dose response, selectivity assay for P. falciparum G6PD inhibitor project, biochemical, fluorescence (AID 504792); type: functional
Chain of Glucose-6-phosphate 1-dehydrogenase (P11413 whole entry): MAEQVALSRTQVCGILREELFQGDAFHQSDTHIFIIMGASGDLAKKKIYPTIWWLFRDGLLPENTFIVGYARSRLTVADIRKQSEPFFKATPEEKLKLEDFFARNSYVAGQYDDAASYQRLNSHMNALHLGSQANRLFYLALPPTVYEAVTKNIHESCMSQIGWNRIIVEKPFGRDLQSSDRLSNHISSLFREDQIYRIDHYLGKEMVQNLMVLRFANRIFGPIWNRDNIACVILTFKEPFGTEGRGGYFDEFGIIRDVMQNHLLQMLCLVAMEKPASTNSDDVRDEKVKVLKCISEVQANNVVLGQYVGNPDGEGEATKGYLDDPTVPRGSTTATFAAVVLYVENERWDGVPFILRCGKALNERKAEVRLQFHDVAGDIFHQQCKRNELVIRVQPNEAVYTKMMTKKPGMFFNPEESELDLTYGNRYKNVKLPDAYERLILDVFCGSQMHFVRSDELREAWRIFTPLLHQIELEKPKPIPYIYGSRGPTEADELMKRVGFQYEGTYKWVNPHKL

HEK293 [2] = assay: cells; type: functional, cell-based; settings: Homo sapiens
[3] = molecular target: Nucleotide-binding oligomerization domain-containing protein 2 (Homo sapiens, UniProt Q9HC29); assay: NOD2 signaling inhibitors, cell-based, luminescence, uHTS, HEK293 (AID 1566); type: functional
Chain of Nucleotide-binding oligomerization domain-containing protein 2 (Q9HC29 whole entry, the tested form may be a part): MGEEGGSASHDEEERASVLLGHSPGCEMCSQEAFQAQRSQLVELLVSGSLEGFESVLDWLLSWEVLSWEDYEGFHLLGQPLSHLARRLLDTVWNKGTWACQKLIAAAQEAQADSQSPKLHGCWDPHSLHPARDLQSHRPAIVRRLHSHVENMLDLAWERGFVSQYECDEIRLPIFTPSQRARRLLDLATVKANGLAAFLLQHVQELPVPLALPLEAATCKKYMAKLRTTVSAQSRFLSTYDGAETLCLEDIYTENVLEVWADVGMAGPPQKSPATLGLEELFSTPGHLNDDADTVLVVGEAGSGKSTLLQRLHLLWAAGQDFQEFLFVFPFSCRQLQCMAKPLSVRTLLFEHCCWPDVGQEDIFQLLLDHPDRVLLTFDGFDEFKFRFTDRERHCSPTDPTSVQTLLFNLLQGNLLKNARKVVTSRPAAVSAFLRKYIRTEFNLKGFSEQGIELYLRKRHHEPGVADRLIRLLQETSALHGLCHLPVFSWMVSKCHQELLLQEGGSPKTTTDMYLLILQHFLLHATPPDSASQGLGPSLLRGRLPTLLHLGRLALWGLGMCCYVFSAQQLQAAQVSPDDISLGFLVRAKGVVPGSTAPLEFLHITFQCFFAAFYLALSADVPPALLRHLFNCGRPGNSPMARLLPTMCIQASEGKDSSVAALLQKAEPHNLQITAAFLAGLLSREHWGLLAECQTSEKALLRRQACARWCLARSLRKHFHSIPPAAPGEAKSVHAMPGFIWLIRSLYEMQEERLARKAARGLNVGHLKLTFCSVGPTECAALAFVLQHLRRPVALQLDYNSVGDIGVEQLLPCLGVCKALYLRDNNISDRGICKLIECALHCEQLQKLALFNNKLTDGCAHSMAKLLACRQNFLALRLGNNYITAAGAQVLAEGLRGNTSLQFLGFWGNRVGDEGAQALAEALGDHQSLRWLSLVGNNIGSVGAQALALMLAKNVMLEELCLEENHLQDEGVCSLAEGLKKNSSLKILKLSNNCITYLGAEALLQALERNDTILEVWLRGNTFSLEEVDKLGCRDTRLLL

HEK293 [4] = assay: cells; type: functional, cell-based; settings: Homo sapiens; remark: listed apart in the source
HEK293 [5] = assay: NOD2 signaling inhibitors in MDP-stimulated cells, cell-based, uHTS, luminescence (AID 2001); type: functional; settings: Homo sapiens
HEK293 [6] = assay: NOD1 signaling inhibitors, primary screen, cell-based, luminescence, uHTS (AID 1578); type: functional; settings: Homo sapiens
HEK293 [7] = assay: cells; type: functional, cell-based; settings: Homo sapiens; remark: listed apart in the source
[8] = molecular target: T1, Lysine-specific demethylase 4C (Homo sapiens, UniProt Q9H3R0); assay: GASC-1 (JMJD2C) histone demethylase inhibitors, dose response, biochemical, DELFIA europium, cherry-picked samples (AID 488835); type: functional
T1 sequence (Q9H3R0 whole entry): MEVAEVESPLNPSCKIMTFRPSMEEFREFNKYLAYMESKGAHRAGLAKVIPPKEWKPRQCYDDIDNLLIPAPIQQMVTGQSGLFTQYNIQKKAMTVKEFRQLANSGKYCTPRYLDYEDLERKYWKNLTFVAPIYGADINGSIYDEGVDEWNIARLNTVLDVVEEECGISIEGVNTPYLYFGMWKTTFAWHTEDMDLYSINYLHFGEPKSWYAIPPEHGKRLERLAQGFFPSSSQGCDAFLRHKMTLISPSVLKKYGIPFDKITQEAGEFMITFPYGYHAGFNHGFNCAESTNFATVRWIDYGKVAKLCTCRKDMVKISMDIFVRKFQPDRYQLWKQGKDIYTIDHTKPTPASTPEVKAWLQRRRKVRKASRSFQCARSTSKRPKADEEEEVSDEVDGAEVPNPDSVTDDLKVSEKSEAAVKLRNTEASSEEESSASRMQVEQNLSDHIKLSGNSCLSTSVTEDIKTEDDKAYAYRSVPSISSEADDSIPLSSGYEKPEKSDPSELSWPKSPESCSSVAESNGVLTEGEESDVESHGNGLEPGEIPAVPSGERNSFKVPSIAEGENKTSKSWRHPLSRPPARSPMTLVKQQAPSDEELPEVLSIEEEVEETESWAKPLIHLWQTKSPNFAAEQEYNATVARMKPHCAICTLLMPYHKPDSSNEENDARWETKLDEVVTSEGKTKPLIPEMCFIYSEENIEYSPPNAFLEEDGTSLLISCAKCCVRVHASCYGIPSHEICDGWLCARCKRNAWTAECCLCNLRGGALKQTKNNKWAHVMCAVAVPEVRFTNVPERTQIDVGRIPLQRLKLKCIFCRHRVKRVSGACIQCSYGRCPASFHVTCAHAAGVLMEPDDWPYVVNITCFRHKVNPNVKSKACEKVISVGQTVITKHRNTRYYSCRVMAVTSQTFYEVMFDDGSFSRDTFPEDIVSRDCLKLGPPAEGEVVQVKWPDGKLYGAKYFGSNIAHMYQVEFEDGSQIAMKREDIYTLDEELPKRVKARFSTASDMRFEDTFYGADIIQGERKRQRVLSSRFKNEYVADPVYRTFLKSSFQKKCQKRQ

Cytochrome P450 1A2 = molecular target: T2, Cytochrome P450 1A2 (Homo sapiens, UniProt P05177);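 also: PubChem cytochrome P450 panel assay, CYP1A2 panel member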
T2 sequence (P05177 whole entry): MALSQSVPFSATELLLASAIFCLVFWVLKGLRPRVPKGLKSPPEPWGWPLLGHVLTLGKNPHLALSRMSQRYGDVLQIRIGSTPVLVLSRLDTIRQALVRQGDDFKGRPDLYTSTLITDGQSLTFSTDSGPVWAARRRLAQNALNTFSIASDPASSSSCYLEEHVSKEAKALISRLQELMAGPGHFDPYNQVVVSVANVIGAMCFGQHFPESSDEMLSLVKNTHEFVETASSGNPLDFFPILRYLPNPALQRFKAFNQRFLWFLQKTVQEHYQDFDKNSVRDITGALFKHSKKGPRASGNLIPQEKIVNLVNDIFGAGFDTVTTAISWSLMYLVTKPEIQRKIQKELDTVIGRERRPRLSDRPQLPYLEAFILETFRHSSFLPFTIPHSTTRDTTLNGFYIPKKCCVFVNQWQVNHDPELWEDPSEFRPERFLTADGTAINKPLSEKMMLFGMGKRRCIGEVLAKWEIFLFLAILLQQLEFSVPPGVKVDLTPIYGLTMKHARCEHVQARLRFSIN

Cytochrome P450 2C9 = Cytochrome P450 2C9 (Homo sapiens, UniProt P11712)
Chain of Cytochrome P450 2C9 (P11712 whole entry): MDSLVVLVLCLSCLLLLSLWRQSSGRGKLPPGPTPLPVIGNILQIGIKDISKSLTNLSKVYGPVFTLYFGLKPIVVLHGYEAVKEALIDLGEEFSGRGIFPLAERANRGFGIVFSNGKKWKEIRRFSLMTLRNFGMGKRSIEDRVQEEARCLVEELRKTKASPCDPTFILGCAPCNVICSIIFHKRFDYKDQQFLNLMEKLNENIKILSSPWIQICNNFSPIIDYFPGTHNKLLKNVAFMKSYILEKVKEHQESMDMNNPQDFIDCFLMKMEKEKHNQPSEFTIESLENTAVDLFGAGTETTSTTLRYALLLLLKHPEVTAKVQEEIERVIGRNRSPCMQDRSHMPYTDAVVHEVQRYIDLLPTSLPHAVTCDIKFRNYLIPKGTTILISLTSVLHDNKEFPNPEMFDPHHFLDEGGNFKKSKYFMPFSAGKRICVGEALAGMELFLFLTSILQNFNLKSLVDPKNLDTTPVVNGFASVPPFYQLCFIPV

Cytochrome P450 2C19 = Cytochrome P450 2C19 (Homo sapiens, UniProt P33261); assay: Cytochrome panel assay with activity outcomes. Panel member name: p450-cyp2c19 Compounds with AC50 equal or less than 10 uM are considered active; type: functional; settings: read-out: AC50
Chain of Cytochrome P450 2C19 (P33261 whole entry): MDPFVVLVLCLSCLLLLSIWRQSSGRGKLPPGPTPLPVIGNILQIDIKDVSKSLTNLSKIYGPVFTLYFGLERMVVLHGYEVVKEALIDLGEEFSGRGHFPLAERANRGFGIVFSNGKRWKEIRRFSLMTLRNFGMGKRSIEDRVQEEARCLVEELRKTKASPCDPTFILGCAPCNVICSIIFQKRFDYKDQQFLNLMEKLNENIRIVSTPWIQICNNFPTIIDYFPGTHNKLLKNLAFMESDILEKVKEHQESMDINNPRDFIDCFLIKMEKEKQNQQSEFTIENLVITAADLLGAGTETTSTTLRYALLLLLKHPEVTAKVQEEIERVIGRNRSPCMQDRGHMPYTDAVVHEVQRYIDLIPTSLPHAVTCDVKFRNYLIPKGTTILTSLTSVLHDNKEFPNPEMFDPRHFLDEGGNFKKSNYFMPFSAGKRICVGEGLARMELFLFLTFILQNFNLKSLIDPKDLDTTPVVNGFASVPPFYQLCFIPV

[9] = molecular target: T3, Tyrosine-protein phosphatase non-receptor type 22 (Homo sapiens, UniProt Q9Y2R2); type: functional
T3 sequence (Q9Y2R2 whole entry): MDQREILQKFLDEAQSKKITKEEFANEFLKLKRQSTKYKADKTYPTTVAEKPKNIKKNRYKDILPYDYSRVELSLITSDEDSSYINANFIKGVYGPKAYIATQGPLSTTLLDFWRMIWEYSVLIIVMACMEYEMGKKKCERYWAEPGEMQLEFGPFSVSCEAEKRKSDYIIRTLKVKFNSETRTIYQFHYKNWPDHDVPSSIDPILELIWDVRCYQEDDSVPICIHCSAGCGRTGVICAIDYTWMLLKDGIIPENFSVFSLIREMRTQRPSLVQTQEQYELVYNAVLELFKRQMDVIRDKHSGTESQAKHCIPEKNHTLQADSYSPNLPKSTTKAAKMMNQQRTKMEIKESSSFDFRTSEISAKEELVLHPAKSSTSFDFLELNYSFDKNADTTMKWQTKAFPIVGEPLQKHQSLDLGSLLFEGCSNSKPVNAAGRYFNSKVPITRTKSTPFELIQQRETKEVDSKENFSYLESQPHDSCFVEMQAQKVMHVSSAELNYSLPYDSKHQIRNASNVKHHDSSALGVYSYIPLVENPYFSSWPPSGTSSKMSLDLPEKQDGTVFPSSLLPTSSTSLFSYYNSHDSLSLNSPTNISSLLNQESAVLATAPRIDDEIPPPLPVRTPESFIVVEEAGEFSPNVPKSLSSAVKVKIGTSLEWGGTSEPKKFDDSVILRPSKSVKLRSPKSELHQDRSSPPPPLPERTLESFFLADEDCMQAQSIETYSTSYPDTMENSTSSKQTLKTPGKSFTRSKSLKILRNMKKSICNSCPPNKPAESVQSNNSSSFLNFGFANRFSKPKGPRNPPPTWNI

[10] = molecular target: T4, Tyrosine-protein phosphatase non-receptor type 7 (Homo sapiens, UniProt P35236); type: functional
T4 sequence (P35236 whole entry): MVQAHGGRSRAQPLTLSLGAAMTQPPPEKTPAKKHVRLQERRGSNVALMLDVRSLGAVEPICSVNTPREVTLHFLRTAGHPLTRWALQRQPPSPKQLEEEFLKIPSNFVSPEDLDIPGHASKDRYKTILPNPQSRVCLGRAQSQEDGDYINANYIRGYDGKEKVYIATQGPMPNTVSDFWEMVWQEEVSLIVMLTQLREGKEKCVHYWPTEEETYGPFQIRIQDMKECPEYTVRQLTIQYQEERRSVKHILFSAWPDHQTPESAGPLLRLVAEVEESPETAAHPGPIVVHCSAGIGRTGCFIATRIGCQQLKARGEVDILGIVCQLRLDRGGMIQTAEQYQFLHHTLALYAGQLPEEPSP

[11] = molecular target: T3, Tyrosine-protein phosphatase non-receptor type 22; type: functional; remark: listed apart in the source
[12] = Luminescence Cell-Based Dose Confirmation HTS to Identify Inhibitors of Platelet Dense Granule Release. [Related pubchem assays: 1663 (Primary HTS), 1678 (Summary of Project)]; type: functional
[13] = molecular target: Luciferin 4-monooxygenase (Photinus pyralis, UniProt P08659); assay: firefly luciferase enzyme inhibitors, dose response, biochemical, luminescence (AID 1891)
Chain of Luciferin 4-monooxygenase (P08659 whole entry): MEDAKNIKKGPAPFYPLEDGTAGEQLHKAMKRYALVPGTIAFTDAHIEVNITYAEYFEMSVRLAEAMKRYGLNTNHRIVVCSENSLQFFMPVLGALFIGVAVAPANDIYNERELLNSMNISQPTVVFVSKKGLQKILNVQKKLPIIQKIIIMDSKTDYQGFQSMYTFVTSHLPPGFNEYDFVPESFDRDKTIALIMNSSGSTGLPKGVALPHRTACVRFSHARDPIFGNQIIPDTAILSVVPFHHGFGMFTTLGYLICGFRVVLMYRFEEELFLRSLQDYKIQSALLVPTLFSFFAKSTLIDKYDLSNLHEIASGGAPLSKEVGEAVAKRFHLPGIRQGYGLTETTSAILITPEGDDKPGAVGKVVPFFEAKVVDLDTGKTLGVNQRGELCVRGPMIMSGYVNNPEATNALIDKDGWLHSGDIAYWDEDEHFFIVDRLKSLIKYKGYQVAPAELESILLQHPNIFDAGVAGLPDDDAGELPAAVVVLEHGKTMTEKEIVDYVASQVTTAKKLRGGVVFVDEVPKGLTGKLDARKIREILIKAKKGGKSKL

Vero [14] = assay: cells; type: functional, cell-based; settings: Chlorocebus sabaeus
Paired box protein Pax-8 = Paired box protein Pax-8 (Homo sapiens, UniProt Q06710); assay: inhibitors of PAX8-driven TPO luciferase reporter, dose response, RMG-I cells, cherry-pick (AID 687027); type: functional, cell-based;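 also: luciferase reporter driven by Pax8 target thyroperoxidase promoter measured by SteadyGlo luminescence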
Chain of Paired box protein Pax-8 (Q06710 whole entry): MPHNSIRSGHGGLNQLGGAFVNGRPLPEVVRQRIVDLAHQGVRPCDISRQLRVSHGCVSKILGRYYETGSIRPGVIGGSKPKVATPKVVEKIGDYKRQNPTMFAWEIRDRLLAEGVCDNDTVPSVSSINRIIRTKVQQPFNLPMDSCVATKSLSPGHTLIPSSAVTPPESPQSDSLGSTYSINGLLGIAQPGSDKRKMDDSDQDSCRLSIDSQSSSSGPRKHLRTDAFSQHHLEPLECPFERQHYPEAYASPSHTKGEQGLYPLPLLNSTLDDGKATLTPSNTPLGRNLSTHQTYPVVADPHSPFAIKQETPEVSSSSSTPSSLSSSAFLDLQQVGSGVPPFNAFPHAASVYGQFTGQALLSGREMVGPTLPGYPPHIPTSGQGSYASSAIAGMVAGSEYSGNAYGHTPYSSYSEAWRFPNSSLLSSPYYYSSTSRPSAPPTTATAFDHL

Vero [15] = assay: cells; type: functional; settings: Chlorocebus sabaeus

Chain of Cytochrome P450 2D6 (P10635 whole entry): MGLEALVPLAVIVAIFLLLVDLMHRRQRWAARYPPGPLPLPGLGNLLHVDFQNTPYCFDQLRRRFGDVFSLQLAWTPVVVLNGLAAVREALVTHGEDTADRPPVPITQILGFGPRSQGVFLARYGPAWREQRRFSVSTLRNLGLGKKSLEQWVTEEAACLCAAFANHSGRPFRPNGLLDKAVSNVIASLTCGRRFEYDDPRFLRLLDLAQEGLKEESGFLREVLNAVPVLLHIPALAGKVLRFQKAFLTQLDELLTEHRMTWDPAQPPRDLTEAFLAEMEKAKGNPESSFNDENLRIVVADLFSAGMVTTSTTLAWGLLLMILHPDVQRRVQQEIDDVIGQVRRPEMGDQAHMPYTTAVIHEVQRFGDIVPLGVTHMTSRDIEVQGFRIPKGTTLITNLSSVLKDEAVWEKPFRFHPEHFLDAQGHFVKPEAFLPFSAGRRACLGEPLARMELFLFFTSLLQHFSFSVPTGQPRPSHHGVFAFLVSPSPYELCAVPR
Chain of Cytochrome P450 3A4 (P08684 whole entry): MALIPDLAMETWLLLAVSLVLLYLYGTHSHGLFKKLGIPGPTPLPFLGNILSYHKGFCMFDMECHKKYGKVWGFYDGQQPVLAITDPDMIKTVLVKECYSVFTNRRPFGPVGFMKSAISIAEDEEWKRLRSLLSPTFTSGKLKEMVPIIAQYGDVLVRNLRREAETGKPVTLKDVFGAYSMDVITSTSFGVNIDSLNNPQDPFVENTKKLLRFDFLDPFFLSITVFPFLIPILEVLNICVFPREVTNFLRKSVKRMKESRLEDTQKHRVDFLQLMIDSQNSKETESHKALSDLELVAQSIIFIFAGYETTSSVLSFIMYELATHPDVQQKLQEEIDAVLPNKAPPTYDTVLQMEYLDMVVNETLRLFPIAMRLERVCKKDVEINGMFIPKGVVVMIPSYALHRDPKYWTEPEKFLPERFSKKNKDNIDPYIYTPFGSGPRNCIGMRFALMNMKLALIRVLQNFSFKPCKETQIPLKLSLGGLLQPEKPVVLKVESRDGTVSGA

Cc1cc(C)n2nc(SCN3C(=O)c4ccccc4C3=O)nc2n1
AC50 (Cytochrome P450 2D6): inconclusive | AC50 (Cytochrome P450 3A4): 6.31 µM (inconclusive)

COc1ccc(C(=O)Nc2nnc(S(=O)(=O)N3CCOCC3)s2)cc1
IC50 [1]: > 80 µM (inactive)

COc1cccc(OCc2cc(C(=O)NCc3cnc4ccccn34)no2)c1
IC50 (HEK293 [2]): > 20 µM (inactive) | EC50 [3]: > 20 µM (inactive) | IC50 (HEK293 [4]): 18.9 µM (active) | IC50 (HEK293 [5]): > 20 µM (inactive) | EC50 (HEK293 [6]): 12.9 µM (active) | IC50 (HEK293 [7]): > 20 µM (inactive)

COc1ccc(/C=C2/C(=O)NC(=O)N(C3CCCCC3)C2=O)cc1CSc1ccccn1
AC50 [8]: 10 µM (active)

CCC(=O)c1ccc(OCc2ccc(C(=O)OC)cc2)c(OC)c1
AC50 (Cytochrome P450 1A2): 6.31 µM (inconclusive) | AC50 (Cytochrome P450 2C9): 8.91 µM (inconclusive) | AC50 (Cytochrome P450 2D6): inconclusive

CC(C)CNC(=O)c1nc(-c2ccccc2)n(-c2ccccc2)n1
AC50 (Cytochrome P450 2C19): 39.8 µM (inconclusive) | AC50 (Cytochrome P450 1A2): 28.2 µM (inconclusive) | AC50 (Cytochrome P450 2C9): 39.8 µM (inconclusive) | AC50 (Cytochrome P450 2D6): inconclusive

Cc1ccc(S(=O)(=O)c2nc(-c3ccccc3)oc2NCCN2CCOCC2)cc1
IC50 [9]: 75.3 µM (active) | IC50 [10]: > 79.4 µM (inactive) | IC50 [11]: > 79.4 µM (inactive)

Cc1ccc(-n2c(C)cc(/C=c3/sc4nc5ccccc5n4c3=O)c2C)cc1
IC50 (HEK293 [2]): > 20 µM (inactive) | EC50 [3]: 0.49 µM (active) | IC50 (HEK293 [4]): 0.703 µM (active) | EC50 [12]: > 112 µM (not active) | IC50 (HEK293 [5]): 0.48 µM (active) | EC50 (HEK293 [6]): 2.95 µM (active) | EC50 [13]: > 112 µM (not active) | IC50 (HEK293 [7]): > 20 µM (inactive)

CC(=O)O[C@H]1C[C@H](O[C@H]2[C@@H](O)C[C@H](O[C@H]3[C@@H](O)C[C@H](O[C@H]4CC[C@@]5(C)[C@H](CC[C@@H]6[C@@H]5C[C@@H](O)[C@]5(C)[C@@H](C7=CC(=O)OC7)CC[C@]65O)C4)O[C@@H]3C)O[C@@H]2C)O[C@H](C)[C@H]1O[C@@H]1O[C@H](CO)[C@@H](O)[C@H](O)[C@H]1O [LANATOSIDE C]
IC50 (Vero [14]): > 25 µM (active) | AC50 (Paired box protein Pax-8): 0.801 µM (active) | CC50 (Vero [15]): 0.65 µM (active)
